Experimental data: patent US5760036A, “Aminediol protease inhibitors” (E. R. Squibb & Sons, Inc., priority 1995, dated 1998)

target: T1, HIV protease (Human immunodeficiency virus type 1 group M subtype B, UniProt P04585); experiment: HIV Protease Assay; assay type: biochemical; conditions: 10 μM inhibitor, 4% DMSO, 450 μM substrate, pH 5.5, 30 minutes at 37° C., RP-HPLC
T1 construct: and purified protease
Experimental: An HIV protease standard assay was performed in a 60 μl reaction medium containing 50 mM sodium acetate, pH 5.5, 100 μg/ml bovine serum albumen,450 μM substrate (H2 N-Val-Ser-Gln-Asn-(β-naphthyl-alanine)-Pro-Val-Ile-OH), and purified protease. The reaction medium was incubated for 30 minutes at 37° C., quenched by the addition of 140 μl 5% H3 PO4, then analyzed by reverse phase HPLC using UV220 detection. In a typical control assay, 7% of the substrate was hydrolyzed. Aminediol inhibitors of the present invention, listed in the following Table 1, were then employed in the assay, for which purpose they were prepared as a […] solution in DMSO, then diluted to 30 μM with 50 mM sodium acetate/bovine serum albumen. This working stock was then diluted three-fold into the protease reaction medium, for a final concentration of 10 μM inhibitor and 4% DMSO.

Structure (SMILES)	HIV Protease % Inhibition at 10 μM [%]
COC(=O)NC(C)(C(=O)N[C@@H](Cc1ccccc1)[C@H](O)CNC[C@@H](O)[C@H](Cc1ccccc1)NC(=O)OC(C)(C)C)C(C)(C)C (single isomer, unassigned; isomer b) [Compound 374, [1S-[1R*,2S*(2S*, 3R*)]]-[1-[[[3-[[3-[[(1,1-Dimethylethoxy)carbonyl]amino]-2-hydroxy-4-phenylbutyl]amino]-2-hydroxy-1-(phenylmethyl)propyl]amino]carbonyl]-1,2-dimethylpropyl]carbamic acid, methyl ester, isomer B]	28

same assay, conditions: pH 5.5, 10 μM inhibitor, 4% DMSO, 450 μM substrate, pH 5.5, 30 minutes at 37° C., RP-HPLC; read-out: HIV Protease % Inhibition at 10 μM

Structure (SMILES)	inhibition at 10 µM [%]
CC(C)(C)OC(=O)N[C@@H](Cc1ccccc1)[C@H](O)CNC[C@@H](O)[C@H](Cc1ccccc1)NC(=O)C(C)(C)C [Compound 269, [1S-[1R*,2S*(2S*,3R*)]]-[3-[[3-[(2,2-Dimethyl-1-oxo-propyl)amino]-2-hydroxy-4-phenylbutyl]amino]-2-hydroxy-1-(phenylmethyl)propyl]carbamic acid, 1,1-dimethylethyl ester]	61
CC(C)(C)CS(=O)(=O)N[C@@H](Cc1ccccc1)[C@H](O)CNC[C@@H](O)[C@H](Cc1ccccc1)NC(=O)OC(C)(C)C [Compound 181, [1S-[1R*,2S*(2S*,3R*)]]-[3-[[3-[[(2,2-Dimethy]propyl)sulfonyl]amino]-2-hydroxy-4-phenylbutyl]amino]-2-hydroxy-1-(phenylmethyl)propyl]carbamic acid 1,1-dimethylethyl ester]	46
CC(C)(C)OC(=O)N[C@@H](Cc1ccccc1)[C@H](O)CNC[C@@H](O)[C@H](Cc1ccccc1)NC(=O)OCc1nc2ccccc2[nH]1 [Compound 289, [R-(R*,S*)]-[Iminobis[2-hydroxy-1-(phenylmethyl)-3,1-propanediyl)]biscarbamic acid, (1H-benzimidazol-2-yl)methyl 1,1-dimethylethyl ester]	53
CC(C)(C)OC(=O)N1Cc2ccccc2C[C@H]1[C@@H](O)CNC[C@H](O)[C@@H]1Cc2ccccc2CN1C(=O)OC(C)(C)C [Compound 10, [S-(R*,R*)]-3,3'-[Iminobis(1-hydroxy-2,1-ethanediyl)]-bis[2(1H)-iso-quinolinecarboxylic acid], bis(1,1-dimethylethyl) ester]	1
CC(C)(C)OC(=O)N[C@@H](Cc1ccccc1)[C@H](O)CNC[C@@H](O)[C@H](Cc1ccccc1)NC(=O)C(OCc1ccccc1)C(C)(C)C (stereo partly drawn) [Compound 106, [1S-[1R*,2S* (2S*,3R*)]]-3-[[3-[[3,3-Dimethyl-1-oxo-2-(phenylmethoxy)butyl)butyl]amino]-2-hydroxy-4-phenylbutyl]amino]-2-hydroxy-1-(phenyl-methyl)propyl]carbamic acid, 1,1-dimethylethyl ester]	71
CC(C)(C)OC(=O)N[C@@H](Cc1ccccc1)[C@H](O)CNC[C@@H](O)[C@H](Cc1ccccc1)NC(=O)C(=NO)C(C)(C)C [Compound 295, [1S-[1R*,2S*(2S*,3R*)]]-[2-Hydroxy-3-[[2-hydroxy-3-[[2-(hydroxyimino)-3,3-dimethyl-1-oxobutyl]amino]-4-phenylbutyl]amino]-1-(phenylmethyl)propyl]carbamic acid, 1,1-dimethylethyl ester]	82
CC(C)(C)OC(=O)N[C@@H](Cc1ccccc1)[C@@H](O)CNCC(O)[C@@H](Cc1ccccc1)NC(=O)OC(C)(C)C (stereo partly drawn) [Compound 27, [1S-[1R*,2R*(3S*)]]-[3-[[3-[[(1,1-Dimethylethoxy)carbonyl]amino]-2-hydroxy-4-phenylbutyl]amino]-2-hydroxy-1-(phenylmethyl)propyl]-carbamic acid 1,1-dimethylethyl ester]	19
CC(C)[C@H](NC(=O)OCc1ccccc1)C(=O)N[C@@H](Cc1ccccc1)[C@@H](O)CNC[C@H](O)[C@H](Cc1ccccc1)NC(=O)[C@@H](NC(=O)OCc1ccccc1)C(C)C [Compound 119, [S-(1R*,2R*)]-N,N'-[Iminobisr[2-hydroxy-1-(phenylmethyl)-3,1-propanediyl]]bis[N^2-[phenylmethyloxy)carbonyl]-L-valinamidel]	10
CC(C)(C)OC(=O)N[C@@H](Cc1ccccc1)[C@H](O)CNC[C@@H](O)[C@H](Cc1ccccc1)NC(=O)OCc1nc(-c2ccccc2)c[nH]1 [Compound 253, [R-(R*,S*)]-[Iminobis[2-hydroxy-1-(phenylmethyl)-3,1-propanediyl)]biscarbamic acid, 1,1-dimethylethyl(4-phenyl-1H-imidazol-2-yl)methyl ester]	85
CC(C)(C)OC(=O)N[C@@H](Cc1ccccc1)[C@H](O)CNC[C@@H](O)[C@H](Cc1ccccc1)NC(=O)C(N)C(F)(F)F (stereo partly drawn) [Compound 329, [1S-[1R*,2S*(2S*,3R*)]]-[3-[[3-[[(1-Amino-2,2,2-trifluoroethyl)carbonyl]amino]-2-hydroxy-4-phenylbutyl]amino]-2-hydroxy-1-(phenylmethyl)propyl]carbamic acid, 1,1-dimethylethyl ester]	84
CC(C)(C)OC(=O)N[C@@H](Cc1ccccc1)[C@H](O)CNC[C@@H](O)[C@H](Cc1ccccc1)NC(=O)[C@H](O)c1ccccc1 [Compound 377, [1S-[1R*,2S*[2S*, 3R*(S*)]]]-[3-[[3-[2-Hydroxy-1-oxo-2-phenylethyl)amino]-2-hydroxy-4-phenylbutyl]amino]-2-hydroxy-1-(phenylmethyl)propyl]carbamic acid, 1-dimethylethyl ester]	95
CC(C)(C)OC(=O)N[C@@H](Cc1ccccc1)[C@H](O)CNC[C@@H](O)[C@@H](Cc1ccccc1)NC(=O)OC(C)(C)C [Compound 26i, [1R-[1R*,2R*(2R*,3S*)]]-3-[[3-[[(1,1-Dimethylethoxy)carbonyl]amino]-2-hydroxy-4-phenylbutyl]amino]-2-hydroxy-1-(phenylmethyl)propyl]carbamic acid, 1,1-dimethylethyl ester]	57
CC(C)[C@@H](NC(=O)NCc1nc2ccccc2[nH]1)C(=O)N[C@@H](Cc1ccccc1)[C@H](O)CNC[C@@H](O)[C@H](Cc1ccccc1)NC(=O)OC(C)(C)C (relative stereo) [Compound 274, [1S*,2R*(2R*,3S*)]-N^2-[[(1H-Benzimidazol-2-ylmethyl)amino]carbonyl]-N-[3-[[3-[[(1,1-dimethylethoxy)carbonyl]amino]-2-hydroxy-4-phenylbutyl]amino]-2-hydroxy-1-(phenylmethyl)propyl]-D-valinamide]	99
CC(C)(C)OC(=O)N[C@@H](Cc1ccccc1)[C@H](O)CNC[C@@H](O)[C@H](Cc1ccccc1)N1CC(C)(C)OC1=O [Compound 140, [1S-[1R*,2S*(2S*,3R*)]]-[3-[[3-(5,5-Dimethyl-2-oxo-3-oxazolidinyl)-2-hydroxy-4-phenylbutyl]amino]-2-hydroxy-1-(phenylmethyl)-propyl]carbamic acid, 1,1-dimethylethyl ester]	61
CC(C)(C)OC(=O)N[C@@H](Cc1ccccc1)[C@H](O)CNC[C@@H](O)[C@H](Cc1ccccc1)NC(=O)[C@@H](O)c1ccccc1 [Compound 378, [1S-[1R*,2S*[2S*, 3R*(R*)]]]-[3-[[3-[2-Hydroxy-1-oxo-2-phenylethyl)amino]-2-hydroxy-4-phenylbutyl]amino]-2-hydroxy-1-(phenylmethyl)propyl]carbamic acid, 1-dimethylethyl ester]	27
CC(C)(C)OC(=O)N1CCC[C@H]1C(O)CNCC(O)[C@@H]1CCCN1C(=O)OC(C)(C)C (single isomer, unassigned) [Compound 7]	8
CC(C)[C@H](NC(=O)OCc1ccccc1)C(=O)N[C@@H](Cc1ccccc1)[C@@H](O)CNC[C@H](O)[C@H](Cc1ccccc1)NC(=O)OC(C)(C)C [Compound 117, [S-[1R*,2R*(2R*,3R*)]]-N-[3-[[3-[[(1,1-Dimethylethoxy)carbonyl]amino]-2-hydroxy-4-phenylbutyl]amino]-2-hydroxy-1-(phenylmethyl)propyl]-N^2-[(phenylmethoxy)-carbonyl]-L-valinamide]	14
CC(C)(C)OC(=O)N[C@@H](Cc1ccccc1)[C@H](O)CNC[C@@H](O)[C@H](Cc1ccccc1)NC(=O)C(C)(C)CO [Compound 279, [1S-[1R*,2S*(2S*,3R*)]]-[2-Hydroxy-3-[[2-hydroxy-3-[[2-(hydroxymethyl)-2-methyl-1-oxopropyl]amino]-4-phenylbutyl]amino]-1-(phenylmethyl)propyl]carbamic acid, 1,1-dimethylethyl ester]	54
CC(C)(C)OC(=O)NC[C@@H](O)[C@@H](Cc1ccccc1)NC[C@@H](O)[C@H](Cc1ccccc1)NC(=O)OC(C)(C)C [Compound 190, [2R-[2R*,3R*(2R*,3S*)]]-[3-[[3-[[(1,1-Dimethylethoxy)carbonyl]amino]-2-hydroxy-4-phenyl-butyl]amino]-2-hydroxy-4-phenylbutyl]carbamic acid, 1,1-dimethylethyl ester]	< 16

same assay, conditions: pH 5.5, read-out: HIV Protease % Inhibition at 10 μM

Structure (SMILES)	inhibition at 10 µM [%]
CN(C)C(=O)OCCOc1ccc(C[C@H](NC(=O)OC(C)(C)C)[C@H](O)CNC[C@@H](O)[C@H](Cc2ccccc2)NC(=O)OC(C)(C)C)cc1 [Compound 372, [1S-[1R*,2S*(2S*, 3R*)[[-]3-]]4-]4-[2-[[(Dimethylamino)carbonyl]oxy]ethoxyl]phenyl]-3-[[(1,1-dimethylethoxy)carbonyl]amino]-2-hydroxybutyl]amino]-2-hydroxy-1-(phenylmethyl) propyl]carbamic acid]	98
